In BindingDB's records for doi:10.1016/j.bmcl.2018.06.027 (Chinese Academy of Science, 2018):

Experiment: Inhibition of HIV1 3B protease infected in human MT4 cells assessed as protection from virus induced cytopathogenicity measured after 5 days post infection by MTT assay

| EC50 | SMILES |
| --- | --- |
| 550 nM | CC(C)c1nc(CN(C)C(=O)N[C@H](C(=O)N[C@@H](Cc2ccccc2)C[C@H](O)[C@H](Cc2ccccc2)NC(=O)OCc2cncs2)C(C)C)c[se]1 |
| 170 nM | CC(C)[C@H](NC(=O)N(C)Cc1c[se]c(-c2ccccc2)n1)C(=O)N[C@@H](Cc1ccccc1)C[C@H](O)[C@H](Cc1ccccc1)NC(=O)OCc1cncs1 |
